Data as given in patent US7972793B2, “Methods and compositions for the treatment of psychotic disorders through the identification of the SULT4A1-1 haplotype” (Suregene, LLC, priority 2009, dated 2011).
Read-outs that look alike come from different tables or passages of the source. Marks after values point to notes of the source that are not given here.

What was measured:
[1] = system: CATIE Phase I non-responders; settings: CATIE Phase II, LOCF; for Responders (number): decrease PANSS ≧ 20%
[2] = system: CATIE schizophrenia patients; test: Length of successful treatment by the CGI scale (TMSUCC1) in CATIE; format: in vivo, human
Text: The CATIE clinical data set included the Clinical Global Impression (CGI) Scale, an observer-provided assessment of the psychiatric health of the patient (Stroup et al., 2003; Guy 1976). Patients are rated with the CGI Scale from 1 to 7, with higher scores indicating greater severity of illness. The CATIE study provided a response variable that measured the time (in months) of successful treatment as measured by the CGI scale (“TMSUCC1” in the CATIE data).
The CATIE clinical data set included Clinical Global Impression (CGI) Scale, an observer-provided assessment of the psychiatric health of the patient (Stroup et al., 2003; Guy 1976). Patients are rated with the CGI Scale from 1 to 7, with higher scores indicating greater severity of illness. The CATIE study provided a response variable that measured the time (in months) of successful treatment as measured by the CGI scale (“TMSUCC1” in the CATIE data).

[3] = system: CATIE African American schizophrenia patients; test: CATIE drug response: change in total PANSS (LOCF), segmented by SULT4A1-1 status, African Americans; format: in vivo, human
Experimental: The design of the CATIE study has been described in detail by others (Lieberman et al., 2005; Stroup et al., 2003). […] A total of 738 subjects consented to provide DNA for genetic study. […] Retrospective genetic analyses, judged to be exempt from human studies requirements by an IRB, were conducted in the current study. All tested patients were studied using well established clinical endpoints comparing baseline, intermediate, and last observation carried forward (LOCF) for the PANSS scores using CATIE data. […] To remove time on drug as a variable for the CATIE trial, analysis was limited to only those patients who were randomized to a different drug following the initial washout period (drug switchers).

CATIE Caucasian subjects = test: Rate of hospitalization due to exacerbation of psychosis in CATIE by SULT4A1-1 status; format: in vivo, human
Text: For this analysis, the inventors assigned a dichotomous value (positive or negative) for hospitalization status to subjects in each phase of the trial based on only the first hospitalization event for a given patient in that phase.

[4] = system: CATIE Caucasian schizophrenia patients; test: CATIE Phase 1 drug response: change in total PANSS (LOCF), drug switchers, segmented by SULT4A1-1 status; format: in vivo, human; settings: for ≦−20% (number of individuals with this percent change in total PANSS; responders) / ≧−20% (number of individuals with this percent change in total PANSS; non-responders): LOCF; for Non Responder (number) / Responder (number): Table 16, 20% decrease in PANSS threshold
Text: There are several different metrics for quantifying response in clinical trials of antipsychotic medications. The most commonly used psychometric instrument is the Positive and Negative Syndrome Scale (PANSS), a 30-item semi-quantitative instrument scored by clinical professionals (Kay et al., 1987). The greater the decrease in PANSS score, the better the clinical response. The most direct measure of clinical response is absolute change in PANSS score. In addition to absolute change, the improvement is often reported as a percentage change from baseline PANSS score.
A decrease of at least 20% in total PANSS is one commonly used threshold for response (Leucht et al., 2009).
The design of the CATIE study has been described in detail by others (Lieberman et al., 2005; Stroup et al., 2003). […] A total of 738 subjects consented to provide DNA for genetic study. […] Retrospective genetic analyses, judged to be exempt from human studies requirements by an IRB, were conducted in the current study.
All tested patients were studied using well established clinical endpoints comparing baseline, intermediate, and last observation carried forward (LOCF) for the PANSS scores using CATIE data. LOCF analysis is a commonly used clinical endpoint for clinical trials for neuropsychiatric drugs, with changes in PANSS scores of between negative 20% and negative 30% used as typical endpoints to indicate clinically significant response (Leucht et al., 2009). To remove time on drug as a variable for the CATIE trial, analysis was limited to only those patients who were randomized to a different drug following the initial washout period (drug switchers).
As mentioned previously, the mean change in absolute or percent PANSS provides an important measure of efficacy in patients undergoing antipsychotic treatments. Indeed, many pivotal trials in the psychosis field used absolute and/or percentage change in PANSS Score as the primary endpoint (Leucht et al., 2009). […] Therefore, in addition to examining a categorical definition of clinically significant response, the inventors determined the impact of segmentation by SULT4A1-1 status on the quantitative measure of clinical improvement—delta PANSS.

[5] = system: CATIE Caucasian schizophrenia patients; test: Time to discontinuation for all causes in the CATIE study; format: in vivo, human
Text: The primary endpoint for the CATIE study was time to discontinuation for all causes (Lieberman et al., 2005). Thus the inventors evaluated the effect of SULT41-1 status on this important parameter.

[6] = SULT4A1-1 Positive, CATIE Phases 1, 2 and/or 3
[7] = SULT4A1-1 negative, CATIE Phases 1, 2 and/or 3
[8] = Unsegmented, CATIE Phases 1, 2 and/or 3
[9] = SULT4A1-1 Negative, CATIE Caucasians
[10] = SULT4A1-1 Positive, CATIE Caucasians
[11] = SULT4A1-1 negative group (sign not given)
[12] = SULT4A1-1 positive group (sign not given)
[13] = olanzapine SULT4A1-1 + vs olanzapine SULT4A1-1 −, CATIE
[14] = olanzapine SULT4A1-1 + vs perphenazine SULT4A1-1 +, CATIE
[15] = olanzapine SULT4A1-1 + vs quetiapine SULT4A1-1 +, CATIE
[16] = olanzapine SULT4A1-1 + vs risperidone SULT4A1-1 +, CATIE
[17] = olanzapine SULT4A1-1 + vs unsegmented (all drugs), CATIE
[18] = olanzapine SULT4A1-1 + vs unsegmented SULT4A1-1 +, CATIE
[19] = olanzapine SULT4A1-1 + vs unsegmented olanzapine, CATIE
[20] = olanzapine SULT4A1-1 + vs ziprasidone SULT4A1-1 +, CATIE

SMILES: Cc1cc2c(s1)Nc1ccccc1N=C2N1CCN(C)CC1 [Olanzapine]
- Nonresponders (number) ([1]; SULT4A1-1 Negative): 14
- Responders (number) ([1]; SULT4A1-1 Negative): 3
- Nonresponders (number) ([1]; SULT4A1-1 Positive): 4
- Responders (number) ([1]; SULT4A1-1 Positive): 3
- Length of Successful Treatment (CGI Months), Mean ([2]; SULT4A1-1 Positive): 8.33^d Months
- Length of Successful Treatment (CGI Months), Mean ([2]; Unsegmented): 6.10 Months
- ≦−20% (number of individuals; responders) ([3]; SULT4A1-1 Negative): 15
- ≧−20% (number of individuals; non-responders) ([3]; SULT4A1-1 Negative): 30
- ≦−20% (number of individuals; responders) ([3]; SULT4A1-1 Positive): 1
- ≧−20% (number of individuals; non-responders) ([3]; SULT4A1-1 Positive): 3
- Responders ([3]; SULT4A1-1 Positive, change in total PANSS ≦−20%): 25%
- HOSP (number of subjects hospitalized) (CATIE Caucasian subjects; [6]): 1
- HOSP (rate of hospitalization) (CATIE Caucasian subjects; [6]): (2.6%)
- HOSP (rate of hospitalization) (CATIE Caucasian subjects; SULT4A1-1 Positive, CATIE Phases 1, 2 and/or 3, listed as olanzapine): 2.6%
- HOSP (number of subjects hospitalized) (CATIE Caucasian subjects; [7]): 22
- HOSP (number of subjects hospitalized) (CATIE Caucasian subjects; [8]): 23
- HOSP (rate of hospitalization) (CATIE Caucasian subjects; [8]): (14.2%)
- DELTA PANSS % (mean change in PANSS score from baseline to LOCF) [4, 9]: −3*** %
- ≦−20% (number of individuals with this percent change in total PANSS; responders) [4, 9]: 10
- ≧−20% (number of individuals with this percent change in total PANSS; non-responders) [4, 9]: 33
- DELTA PANSS % (mean change in PANSS score from baseline to LOCF) ([4]; SULT4A1-1 Negative, CATIE Caucasians, listed as olanzapine): −3%
- DELTA PANSS % (mean change in PANSS score from baseline to LOCF) [4, 10]: −24%
- ≦−20% (number of individuals with this percent change in total PANSS; responders) [4, 10]: 10
- ≧−20% (number of individuals with this percent change in total PANSS; non-responders) [4, 10]: 5
- Non Responder (number) [4, 11]: 33
- Responder (number) [4, 11]: 10
- Non Responder (number) [4, 12]: 5
- Responder (number) [4, 12]: 10
- Effect size ([4]; olanzapine SULT4A1-1 + vs SULT4A1-1 + except olanzapine, CATIE): 0.68
- Effect size [4, 13]: 0.93
- Mean difference (95% CI) in delta PANSS [4, 13]: −20.9 (−33.4 to −8.4)
- Effect size [4, 14]: 0.68
- Mean difference (95% CI) in delta PANSS [4, 14]: −14.2 (−29.8 to 1.4)
- Effect size [4, 15]: 0.75
- Mean difference (95% CI) in delta PANSS [4, 15]: −14.9 (−28.3 to −1.5)
- Effect size [4, 16]: 0.93
- Mean difference (95% CI) in delta PANSS [4, 16]: −20.9 (−33.2 to −6.0)
- Effect size [4, 17]: 0.83
- Mean difference (95% CI) in delta PANSS [4, 17]: −19.6 (−31.7 to −7.5)
- Effect size [4, 18]: 0.60
- Mean difference (95% CI) in delta PANSS [4, 18]: −13.0 (−24.7 to −1.2)
- Effect size [4, 19]: 0.69
- Mean difference (95% CI) in delta PANSS [4, 19]: −15.5 (−27.8 to −3.2)
- Effect size [4, 20]: 0.77
- Mean difference (95% CI) in delta PANSS [4, 20]: −16.1 (−32.7 to 0.5)
- Effect size ([4]; olanzapine-treated SULT4A1-1 positive patients compared to various other SULT4A1-1-drug combinations, CATIE): −0.91 to −0.47
- delta PANSS ([4]; overall (not segmented by SULT4A1-1 status), CATIE): −9
- Responders (number, out of 58) ([4]; patients unselected for SULT4A1-1 status, 20% PANSS threshold, CATIE Caucasians): 20
- Time to discontinuation, mean time in months ([5]; SULT4A1-1 Negative): 10.0** Months

SMILES: OCCN1CCN(CCCN2c3ccccc3Sc3ccc(Cl)cc32)CC1 [Perphenazine]
- ≦−20% (number of individuals; responders) ([3]; SULT4A1-1 Negative): 10
- ≧−20% (number of individuals; non-responders) ([3]; SULT4A1-1 Negative): 27
- ≦−20% (number of individuals; responders) ([3]; SULT4A1-1 Positive): 0
- ≧−20% (number of individuals; non-responders) ([3]; SULT4A1-1 Positive): 2
- HOSP (number of subjects hospitalized) (CATIE Caucasian subjects; [6]): 1
- HOSP (number of subjects hospitalized) (CATIE Caucasian subjects; [7]): 9
- HOSP (number of subjects hospitalized) (CATIE Caucasian subjects; [8]): 10
- ≦−20% (number of individuals with this percent change in total PANSS; responders) [4, 9]: 16
- ≧−20% (number of individuals with this percent change in total PANSS; non-responders) [4, 9]: 47
- ≦−20% (number of individuals with this percent change in total PANSS; responders) [4, 10]: 5
- ≧−20% (number of individuals with this percent change in total PANSS; non-responders) [4, 10]: 9
- Non Responder (number) [4, 12]: 9
- Responder (number) [4, 12]: 5
- Time to discontinuation, mean time in months ([5]; SULT4A1-1 Positive): 7.6** Months
